These results are taken from patent US20230159532A1, “PARATHYROID HORMONE (PTH) RECEPTOR ANTAGONISTS AND USES THEREOF” (Crinetics Pharmaceuticals, Inc., priority 2021, published 2023).

Structures are written as SMILES.

The target of this assay is T1, human PTHR1 receptor (Homo sapiens, UniProt Q03431).
T1 construct: purchased Eurofins HTS030M
T1 sequence (Q03431 27-593): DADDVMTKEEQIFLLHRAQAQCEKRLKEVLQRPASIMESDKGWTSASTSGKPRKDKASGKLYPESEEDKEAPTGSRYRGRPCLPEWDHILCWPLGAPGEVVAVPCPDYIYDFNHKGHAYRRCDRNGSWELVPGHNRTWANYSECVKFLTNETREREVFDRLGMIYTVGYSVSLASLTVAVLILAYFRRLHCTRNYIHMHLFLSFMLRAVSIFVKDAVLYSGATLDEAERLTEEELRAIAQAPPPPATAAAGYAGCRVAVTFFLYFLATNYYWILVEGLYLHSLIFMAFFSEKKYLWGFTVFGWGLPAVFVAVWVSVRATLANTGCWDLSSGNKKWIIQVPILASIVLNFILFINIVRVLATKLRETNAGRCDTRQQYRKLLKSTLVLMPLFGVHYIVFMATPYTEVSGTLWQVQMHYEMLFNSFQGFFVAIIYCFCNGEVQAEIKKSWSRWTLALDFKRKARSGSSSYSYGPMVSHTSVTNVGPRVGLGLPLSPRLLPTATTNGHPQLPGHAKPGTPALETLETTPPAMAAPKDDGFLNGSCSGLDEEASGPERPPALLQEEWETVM
As to the kind of experiment: Competitive antagonist binding assay for hPTH-R1 (radioactive competition binding, SPA beads). The following applies: human PTHR1 membranes, [125I]-[Nle8,18,Tyr34]-PTH(1-34) 0.2 nM, 90 minutes at room temperature; read-out: hPTHR1 Ki. In short, it runs like this:
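Human PTHR1 membranes on SPA beads incubated 90 min at room temperature with compound (typically 0-10,000 nM final) and 0.2 nM [125I]-[Nle8,18,Tyr34]-PTH(1-34) in HEPES buffer with MgCl2, CaCl2, BSA, Triton X-100 and protease inhibitors, pH 7.4. Scintillation signal read; Ki values derived.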

The Ki is a measure of affinity in units of concentration, obtained from inhibition or displacement.

On to `CN1C(=O)N(c2c(F)cc(NCCNCCO)cc2F)c2cc(C#N)cc(F)c2-c2cc(F)cnc21` [1-110, 10-[2,6-difluoro-4-({2-[(2-hydroxyethyl)amino]ethyl}amino)phenyl]-4,15-difluoro-8-methyl-9-oxo-6,8,10-triazatricyclo[9.4.0.0^2,7]pentadeca-1(11),2(7),3,5,12,14-hexaene-13-carbonitrile], for which the Ki was < 100 nM.
As to `CCN1C(=O)N(c2c(F)cc(NCCNCC(=O)O)cc2F)c2cc(Cl)ccc2-c2cc(Cl)cnc21` [1-242, 2-({2-[(4-{4,13-dichloro-8-ethyl-9-oxo-6,8,10-triazatricyclo[9.4.0.0^2,7]pentadeca-1(11),2(7),3,5,12,14-hexaen-10-yl}-3,5-difluorophenyl)amino]ethyl}amino)acetic acid], the Ki was < 100 nM.
As for `CCN1C(=O)N(c2c(F)cc(NCCNCCN3CCOC3=O)cc2F)c2cc(C#N)ccc2-c2cc(Cl)cnc21` [1-191, 4-chloro-10-{2,6-difluoro-4-[(2-{[2-(2-oxo-1,3-oxazolidin-3-yl)ethyl]amino}ethyl)amino]phenyl}-8-ethyl-9-oxo-6,8,10-triazatricyclo[9.4.0.0^2,7]pentadeca-1(11),2(7),3,5,12,14-hexaene-13-carbonitrile], the Ki was < 100 nM.
Take `CCN1C(=O)N(c2c(F)cc(NCCNCCO)cc2F)c2c(ccc(Cl)c2F)-c2cc(Cl)cnc21` [3-10, 4,13-dichloro-10-[2,6-difluoro-4-({2-[(2-hydroxyethyl)amino]ethyl}amino)phenyl]-8-ethyl-12-fluoro-6,8,10-triazatricyclo[9.4.0.0^2,7]pentadeca-1(11),2(7),3,5,12,14-hexaen-9-one]: the Ki was < 100 nM.
On to `CCN1C(=O)N(c2c(F)cc(NCCNCCO)cc2F)c2cc(C#N)cc(C)c2-c2cc(F)cnc21` [1-63, 10-[2,6-difluoro-4-({2-[(2-hydroxyethyl)amino]ethyl}amino)phenyl]-8-ethyl-4-fluoro-15-methyl-9-oxo-6,8,10-triazatricyclo[9.4.0.0^2,7]pentadeca-1(11),2(7),3,5,12,14-hexaene-13-carbonitrile], for which the Ki is < 100 nM.
The result for `CCN1C(=O)N(c2ccc(NCCNC)cc2F)c2cc(Cl)ccc2-c2cc(Cl)cnc21` [2-8, 4,13-dichloro-8-ethyl-10-(2-fluoro-4-{[2-(methylamino)ethyl]amino}phenyl)-6,8,10-triazatricyclo[9.4.0.0^2,7]pentadeca-1(11),2(7),3,5,12,14-hexaen-9-one] reads < 100 nM.
On to `CCN1C(=O)N(c2c(F)cc(N3CCNCC3)cc2F)c2cc(C#N)ccc2-c2cc(Cl)cnc21` [1-136, 4-chloro-10-[2,6-difluoro-4-(piperazin-1-yl)phenyl]-8-ethyl-9-oxo-6,8,10-triazatricyclo[9.4.0.0^2,7]pentadeca-1(11),2(7),3,5,12,14-hexaene-13-carbonitrile], for which the Ki lay in the range of 100 to 1000 nM.
Consider `CCN1C(=O)N(c2c(F)cc(NCCNCCN(C)C)cc2F)c2cc(C#N)ccc2-c2cc(Cl)cnc21` [1-132, 4-chloro-10-{4-[(2-{[2-(dimethylamino)ethyl]amino}ethyl)amino]-2,6-difluorophenyl}-8-ethyl-9-oxo-6,8,10-triazatricyclo[9.4.0.0^2,7]pentadeca-1(11),2(7),3,5,12,14-hexaene-13-carbonitrile], for which the Ki is < 100 nM.
For the compound `CCN1C(=O)N(c2c(F)cc(NCCN[C@H](CO)C(=O)O)cc2F)c2cc(C#N)ccc2-c2cc(Cl)cnc21` [1-220, (2R)-2-({2-[(4-{4-chloro-13-cyano-8-ethyl-9-oxo-6,8,10-triazatricyclo[9.4.0.0^2,7]pentadeca-1(11),2(7),3,5,12,14-hexaen-10-yl}-3,5-difluorophenyl)amino]ethyl}amino)-3-hydroxypropanoic acid], the Ki was < 100 nM.
In the case of `CCN1C(=O)N(c2c(F)cc(NCCNCCNC(=O)NC)cc2F)c2cc(C#N)ccc2-c2cc(F)cnc21` [1-172, 1-[2-({2-[(4-{13-cyano-8-ethyl-4-fluoro-9-oxo-6,8,10-triazatricyclo[9.4.0.0^2,7]pentadeca-1(11),2(7),3,5,12,14-hexaen-10-yl}-3,5-difluorophenyl)amino]ethyl}amino)ethyl]-3-methylurea], the Ki is < 100 nM.
Take `CCN1C(=O)N(c2c(F)cc(NCCNCCO)cc2F)c2cc(Cl)ccc2-c2c1ncc(Cl)c2C` [3-4, 4,13-dichloro-10-[2,6-difluoro-4-({2-[(2-hydroxyethyl)amino]ethyl}amino)phenyl]-8-ethyl-3-methyl-6,8,10-triazatricyclo[9.4.0.0^2,7]pentadeca-1(11),2(7),3,5,12,14-hexaen-9-one]: the Ki was < 100 nM.
For `CCN1C(=O)N(c2c(F)cc(NCCNCCNC(N)=O)cc2F)c2cc(C#N)ccc2-c2cc(Cl)cnc21` [1-140, [2-({2-[(4-{4-chloro-13-cyano-8-ethyl-9-oxo-6,8,10-triazatricyclo[9.4.0.0^2,7]pentadeca-1(11),2(7),3,5,12,14-hexaen-10-yl}-3,5-difluorophenyl)amino]ethyl}amino)ethyl]urea], the Ki was < 100 nM.
Consider `CC(C)N1C(=O)N(c2c(F)cc(NCCNCCO)cc2F)c2cc(Cl)ccc2-c2cc(Cl)cnc21` [1-47, 4,13-dichloro-10-[2,6-difluoro-4-({2-[(2-hydroxyethyl)amino]ethyl}amino)phenyl]-8-(propan-2-yl)-6,8,10-triazatricyclo[9.4.0.0^2,7]pentadeca-1(11),2(7),3,5,12,14-hexaen-9-one], for which the Ki was < 100 nM.
`CCN1C(=O)N(c2c(F)cc(NCCNC)cc2F)c2cc(F)ccc2-c2cc(Cl)cnc21` [1-130, 4-chloro-10-(2,6-difluoro-4-{[2-(methylamino)ethyl]amino}phenyl)-8-ethyl-13-fluoro-6,8,10-triazatricyclo[9.4.0.0^2,7]pentadeca-1(11),2(7),3,5,12,14-hexaen-9-one]: the Ki is < 100 nM.
The result for `CCCN1C(=O)N(c2c(F)cc(NCCNCCO)cc2F)c2cc(C#N)ccc2-c2cc(F)cnc21` [1-118, 10-[2,6-difluoro-4-({2-[(2-hydroxyethyl)amino]ethyl}amino)phenyl]-4-fluoro-9-oxo-8-propyl-6,8,10-triazatricyclo[9.4.0.0^2,7]pentadeca-1(11),2(7),3,5,12,14-hexaene-13-carbonitrile] reads < 100 nM; that for `CCN1C(=O)N(c2c(F)cc(N[C@H](C)CNC)cc2F)c2cc(C#N)ccc2-c2cc(Cl)cnc21` [1-159, 4-chloro-10-(2,6-difluoro-4-{[(2R)-1-(methylamino)propan-2-yl]amino}phenyl)-8-ethyl-9-oxo-6,8,10-triazatricyclo[9.4.0.0^2,7]pentadeca-1(11),2(7),3,5,12,14-hexaene-13-carbonitrile], < 100 nM; that for `CCNCCNc1cc(F)c(N2C(=O)N(CC)c3ncc(Cl)cc3-c3ccc(C#N)cc32)c(F)c1` [1-133, 4-chloro-8-ethyl-10-(4-{[2-(ethylamino)ethyl]amino}-2,6-difluorophenyl)-9-oxo-6,8,10-triazatricyclo[9.4.0.0^2,7]pentadeca-1(11),2(7),3,5,12,14-hexaene-13-carbonitrile], < 100 nM.
As for `CCN1C(=O)N(c2c(F)cc(NCCNC)cc2F)c2cccc(C)c2-c2cc(Cl)cnc21` [1-21, 4-chloro-10-(2,6-difluoro-4-{[2-(methylamino)ethyl]amino}phenyl)-8-ethyl-15-methyl-6,8,10-triazatricyclo[9.4.0.0^2,7]pentadeca-1(11),2(7),3,5,12,14-hexaen-9-one], the figure is < 100 nM; as for `CCN1C(=O)N(c2c(F)cc(NCCN[C@@H]3CC[C@H]3O)cc2F)c2cc(C#N)ccc2-c2cc(F)cnc21` [1-218, 10-{2,6-difluoro-4-[(2-{[(1R,2R)-2-hydroxycyclobutyl]amino}ethyl)amino]phenyl}-8-ethyl-4-fluoro-9-oxo-6,8,10-triazatricyclo[9.4.0.0^2,7]pentadeca-1(11),2(7),3,5,12,14-hexaene-13-carbonitrile], < 100 nM; as for `CCN1C(=O)N(c2c(F)cc(NCCNCCS(=O)(=O)O)cc2F)c2cc(C#N)ccc2-c2cc(Cl)cnc21` [1-141, 2-({2-[(4-{4-chloro-13-cyano-8-ethyl-9-oxo-6,8,10-triazatricyclo[9.4.0.0^2,7]pentadeca-1(11),2(7),3,5,12,14-hexaen-10-yl}-3,5-difluorophenyl)amino]ethyl}amino)ethane-1-sulfonic acid], < 100 nM.
Regarding `CCN1C(=O)N(c2c(F)cc(NC[C@@H]3COCCN3)cc2F)c2cc(C#N)ccc2-c2cc(Cl)cnc21` [1-151, 4-chloro-10-[2,6-difluoro-4-({[(3R)-morpholin-3-yl]methyl}amino)phenyl]-8-ethyl-9-oxo-6,8,10-triazatricyclo[9.4.0.0^2,7]pentadeca-1(11),2(7),3,5,12,14-hexaene-13-carbonitrile], the inhibition constant Ki is < 100 nM.
In the case of `CN1C(=O)N(c2c(F)cc(NCCNCCCC(=O)O)cc2F)c2cc(C#N)ccc2-c2cc(Cl)cnc21` [1-201, 4-({2-[(4-{4-chloro-13-cyano-8-methyl-9-oxo-6,8,10-triazatricyclo[9.4.0.0^2,7]pentadeca-1(11),2(7),3,5,12,14-hexaen-10-yl}-3,5-difluorophenyl)amino]ethyl}amino)butanoic acid], the Ki is < 100 nM.
